Assay [1] deals with MGC-803. Briefly: Antitumor activity against human MGC803 cells xenografted in BALB/C mouse assessed as tumor growth inhibition at 6 mg/kg, ip dosed every other day for 16 days relative to control. It counts as functional. Conditions: MGC-803, ip, read-out: TGI. On the technique in general: Xenograft models place foreign cells or tissue in a host animal.
The next assay has as its system T-24. Kind of assay: Antiproliferative activity against human T24 cells after 48 hrs by MTT assay. It counts as functional, cell-based. Conditions: T-24, 48 h. (Formazan colour is commonly taken as a measure of viable cells.)
Another assay has as its system WI-38. Kind of assay: Antiproliferative activity against human WI38 cells after 48 hrs by MTT assay. It counts as cell-based. Conditions: WI-38, 48 h.
A further assay relates to HepG2. Kind of assay: Antiproliferative activity against human HepG2 cells after 48 hrs by MTT assay. Format: functional, cell-based. Conditions: HepG2, 48 h.
The next assay has as its system A549. Briefly: cells. Conditions: Homo sapiens, A549, 48 h.
Another assay concerns HeLa. Briefly: cells. Conditions: Homo sapiens, 48 h.
The test system of assay [2] is MGC-803. Briefly: Antiproliferative activity against human MGC803 cells after 48 hrs by MTT assay. Format: functional, cell-based. Conditions: MGC-803, 48 h.
The target of assay [3] is T1, DNA topoisomerase 1 (Homo sapiens) (UniProt P11387).
T1 sequence (whole entry): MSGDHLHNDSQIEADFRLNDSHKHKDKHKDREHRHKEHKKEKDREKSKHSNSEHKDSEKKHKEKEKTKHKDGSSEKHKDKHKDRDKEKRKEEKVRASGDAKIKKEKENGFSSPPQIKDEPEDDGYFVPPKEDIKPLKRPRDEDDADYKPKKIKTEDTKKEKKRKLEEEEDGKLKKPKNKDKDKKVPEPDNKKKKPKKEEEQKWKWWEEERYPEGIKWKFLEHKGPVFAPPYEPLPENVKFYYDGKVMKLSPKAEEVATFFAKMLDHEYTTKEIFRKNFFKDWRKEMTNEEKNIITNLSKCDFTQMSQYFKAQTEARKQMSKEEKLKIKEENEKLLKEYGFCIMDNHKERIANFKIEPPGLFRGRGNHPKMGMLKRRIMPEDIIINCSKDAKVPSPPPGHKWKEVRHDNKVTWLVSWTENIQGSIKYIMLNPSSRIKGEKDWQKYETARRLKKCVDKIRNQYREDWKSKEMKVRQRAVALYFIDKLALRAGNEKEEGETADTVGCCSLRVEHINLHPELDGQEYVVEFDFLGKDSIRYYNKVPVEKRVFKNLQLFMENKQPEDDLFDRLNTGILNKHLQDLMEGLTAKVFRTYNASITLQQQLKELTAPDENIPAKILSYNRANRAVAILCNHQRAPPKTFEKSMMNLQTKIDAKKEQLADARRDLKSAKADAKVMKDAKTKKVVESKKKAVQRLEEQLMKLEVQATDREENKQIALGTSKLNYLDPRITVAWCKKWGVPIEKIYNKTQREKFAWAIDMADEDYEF
Briefly: Inhibition of topoisomerase 1 (unknown origin) using pBR322 DNA as substrate assessed as reduction in pBR322 DNA unwinding at 50 uM after 30 mins by ethidium bromide staining-based agarose gel electrophoresis analysis.

The target in assay [4] is T1, DNA topoisomerase 1 (Homo sapiens). Briefly: Inhibition of topoisomerase 1 (unknown origin) at 50 uM using pBR322 DNA as substrate preincubated for 30 mins followed by substrate addition and measured after 30 mins by ethidium bromide staining-based agarose gel electrophoresis analysis.
The subject of another assay is DNA. Kind of assay: Binding affinity to Escherichia coli supercoiled pBR322 DNA assessed as DNA intercalation at 50 uM after 1 hr by ethidium bromide staining-based agarose gel electrophoresis analysis. It counts as nucleic-acid assay.

The values below come from ChEMBL document CHEMBL4316587, “Identification of 3-(benzazol-2-yl)quinoxaline derivatives as potent anticancer compounds: Privileged structure-based design, synthesis, and bioactive evaluation in vitro and in vivo” (Eur J Med Chem, 2019).

Activity calls are given as the source filed them. No cut-off for these calls is given here. A value given as a limit tells only on which side of the number the result lay.

In general, IC50 refers to the concentration at which inhibition is half-maximal. For `CC[C@@]1(O)C(=O)OCc2c1cc1n(c2=O)Cc2cc3ccccc3nc2-1` [CAMPTOTHECIN], in the assay on MGC-803 [1], the inhibition in vivo at 6 mg/kg was 51.5%. Further, the IC50 with T-24 is 6.8 µM; with WI-38, 8.37 µM; with HepG2, 4.79 µM; in the assay with A549, 4.43 µM; with HeLa, 6.51 µM; in the assay on MGC-803 [2], 2.96 µM.

On to `c1ccc2nc(-c3nc4ccccc4o3)c(NCCCN3CCOCC3)nc2c1`, for which the IC50 in the assay with T-24, with WI-38, in the assay on HepG2, with A549, in the assay on HeLa and in the assay on MGC-803 [2] was more than 100 µM throughout.

As to `CN(C)CCCNc1nc2ccccc2nc1-c1nc2c(ccc3ccccc32)o1`, the inhibition entry in assay [3] and in assay [4] was “inactive” each time. Moreover, the 50% inhibitory concentration (IC50) in the assay on T-24 turned out to be 5.75 µM; in the assay on WI-38, 16.4 µM; in the assay with HepG2 it was 10.8 µM; in the assay with A549 it was 4.66 µM; in the assay on HeLa, 10.5 µM; with MGC-803 [2], 11.3 µM. Moreover, the outcome in the assay with DNA was inactive.

With `c1ccc2nc(-c3nc4ccccc4o3)c(NCCN3CCOCC3)nc2c1`, the IC50 in the assay with T-24, with WI-38, with HepG2, in the assay with A549, in the assay with HeLa and with MGC-803 [2] was more than 100 µM in each case.

Take `c1ccc2nc(-c3nc4ccccc4[nH]3)c(NCCN3CCOCC3)nc2c1`: the 50% inhibitory concentration (IC50) in the assay with T-24, in the assay on WI-38, in the assay with HepG2, with A549, in the assay with HeLa and in the assay on MGC-803 [2] was more than 100 µM in each case.

In the case of `c1ccc2nc(-c3nc4ccccc4s3)c(NCCCN3CCOCC3)nc2c1`, the IC50 in the assay with T-24, in the assay on WI-38, in the assay with HepG2, in the assay on A549, with HeLa and with MGC-803 [2] was more than 100 µM throughout.

`c1ccc2nc(-c3nc4ccccc4s3)c(NCCN3CCOCC3)nc2c1`: the 50% inhibitory concentration (IC50) in the assay with T-24, in the assay with WI-38, with HepG2, in the assay on A549, in the assay on HeLa and in the assay on MGC-803 [2] was more than 100 µM throughout.

For the compound `c1ccc2nc(-c3nc4ccccc4[nH]3)c(NCCCN3CCOCC3)nc2c1`, the IC50 in the assay with T-24, in the assay with WI-38, in the assay with HepG2, in the assay with A549, with HeLa and in the assay on MGC-803 [2] was more than 100 µM each time.

Regarding `CCN(CC)CCCNc1nc2ccccc2nc1-c1nc2c(ccc3ccccc32)o1`, the inhibition result in [3] and in [4] was “inactive” in each case. Also, the IC50 in the assay with T-24 came to 8 µM; in the assay on WI-38 it was 14.7 µM; in the assay on HepG2, 12.7 µM; in the assay with A549 it was 11.3 µM; in the assay on HeLa it was 10.8 µM; in the assay with MGC-803 [2] it was 11.5 µM. The outcome in the assay with DNA was inactive.
